Assay results published in ChEMBL document CHEMBL3997836, “Leupeptazin, a highly modified tripeptide isolated from cultures of a Streptomyces sp. inhibits cathepsin K” (Bioorg Med Chem Lett, 2017).

Target: T1, Cathepsin K (Homo sapiens, UniProt P43235)
T1 sequence (P43235 whole entry): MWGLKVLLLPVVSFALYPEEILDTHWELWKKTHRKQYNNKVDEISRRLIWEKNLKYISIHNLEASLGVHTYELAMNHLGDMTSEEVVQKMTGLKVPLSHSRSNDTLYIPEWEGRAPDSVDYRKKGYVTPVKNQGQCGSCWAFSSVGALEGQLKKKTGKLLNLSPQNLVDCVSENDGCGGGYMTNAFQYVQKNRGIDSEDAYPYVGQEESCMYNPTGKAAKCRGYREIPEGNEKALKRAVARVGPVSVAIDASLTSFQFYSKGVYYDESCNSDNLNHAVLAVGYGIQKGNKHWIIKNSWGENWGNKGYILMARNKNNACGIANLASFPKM
Assay: Competitive inhibition of recombinant human cathepsin K expressed in Pichia pastoris using Z-FR-MCA as substrate by Dixon plot method

Compound | Ki [µM]
CC(=O)N[C@@H](CC(C)C)C(=O)N[C@@H](CC(C)C)C(=O)N[C@H]1CCCN2C(N)=NC(=N)N[C@@H]12 | 44
CC(=O)N[C@@H](CC(C)C)C(=O)N[C@@H](CC(C)C)C(=O)N[C@H](C=O)CCCNC(=N)N [LEUPEPTIN] | 0.024
